These results are taken from patent publication US9241951B2, “Of gastrointestinal health, immunity and performance by dietary intervention” (BIOATLANTIS LTD, priority 2009, dated 2016).

Assay [1] deals with Lactobacilli. Nature of the assay: Faecal microbiology, Example 4. The class given is in vivo, pig. The source says: (§1) One hundred and ninety two piglets were weaned at twenty four days of age, with an initial live weight of 6.4±0.785 Kg and assigned to one of four dietary treatments or 21 days post weaning. The dietary treatments consisted of (T1) basal diet, (T2) basal diet with 300 ppm LAM, (T3) basal diet with 236 ppm FUC, (T4) Basal diet with 300 ppm LAM and 236 ppm FUC. Diets were formulated to have identical concentrations of digestible energy (DE) (16 MJ/Kg) and ileal digestible lysine (14 g/Kg). All amino acid requirements were met relative to lysine (Close, 1994). Chromium III oxide was added to the diets for determination of nutrient digestibility. The LAM and FUC were derived from Laminaria hyperborea.
(§2) Piglets were housed in groups of 4 and offered feed twice daily. Water was supplied ad-libitum. Any pig displaying symptoms of illness was treated appropriately and recorded. Pigs were weighed on day 0 (day of weaning), 7, 14 and 21. Feed intake was monitored weekly. Fresh faecal samples were taken on day 10 and were analysed for E. coli and Lactobacilli concentrations. Faeces samples were collected from each pen on day 12-17 and were retained for chemical analysis. Fresh faecal samples were removed on day 14 and were frozen and retained for volatile fatty acid analysis. Fresh faecal samples were taken on day 17 for pH determination.
A sample was serially diluted (1:10) in 9.0 ml aliquots of maximum recovery diluent (MRD, Oxoid, Basingstoke, UK), and spread plated (0.1 ml aliquots) onto selective agars. Lactobacillus spp. were isolated on de Man, Rogosa, Sharp agar (MRS, Oxoid) with overnight incubation at 37° C. in 5% CO2. The API 50 CHL (BioMerieux, France) kit was used to confirm suspect Lactobacilli spp. E. coli species were isolated on MacConkey agar (Oxoid), following aerobic incubation at 37° C. for 18-24 hours. Suspect colonies were confirmed with API 20E (BioMerieux, France).

Assay [2] in a line: Pig performance post weaning with LAM and FUC, Example 4. In kind it is in vivo. Conditions: for ADG: days 14-21.
Excerpt: as §1, §2

A short description of assay [3]: Coefficient of total tract apparent digestibility, Example 3. In kind it is in vivo, pig. Conditions: SWE − or +.
The nature of assay [4]: Piglet performance with lactose and SWE, Example 3. In kind it is in vivo, pig.
The subject of assay [5] is Lactobacilli. Nature of the assay: Faecal microbiology, Example 3. The conditions noted are these: SWE − or +. In kind it is in vivo, pig. How it is done:
(§3) This experiment was carried out over two consecutive periods of 25 days. 240 piglets were selected after weaning at 24 days and assigned to one of four dietary treatments. Pigs in period 1 and 2 had initial live weights of 7.2 Kg and 7.8 Kg (±0.9 Kg), respectively. This experiment was designed as a 2×2 factorial. During the experiment (days 0-25) piglets were offered the following diets: (T1) 150 g/Kg lactose; (T2) 150 g/Kg lactose+SWE; (T3) 250 g/Kg lactose (T4) 250 g/Kg lactose+SWE. SWE was included at 2.8 g/Kg and derived from Laminaria digitata. It contained laminarin (112 g/Kg), fucoidan (89 g/Kg) and ash (799 g/Kg).
(§4) Pigs were housed in groups of 4 (n=15/treatment) and weighed at weaning (day 0), day 7, 14 and 25. Pigs were fed ad libitum. Fresh faecal samples were collected on days 10 to 15 for determination of nutrient digestibility and VFA analysis. Fresh faecal samples were collected on day 10 for enumeration of E. coli and Lactobacilli (O'Connell et al., 2005).
(§5) 1 g of faecal sample was serially diluted in maximum recovery diluent (MRD; Oxoid, Basingstoke, UK) and plated on selective agars. Lactobacillus spp. were isolated on de Man Rogosa Sharp agar (MRS, Oxoid). The API 50 CHL (BioMerieux, France) kit was used to confirm suspect Lactobacilli spp. E. coli species were isolated on MacConkey agar (Oxoid). Suspect colonies were confirmed with API 20E (BioMerieux, France).

Another assay has as its system Escherichia coli. Nature of the assay: Faecal microbiology, Example 3. The class given is in vivo, pig. The conditions noted are these: SWE − or +. As to the method:
as §3, §4, §5

Where [6] appears, read: Day 0-7, diet with 150 g/Kg lactose, SWE 2.8 g/Kg where included.
[7] abbreviates: Day 0-7, diet with 250 g/Kg lactose, SWE 2.8 g/Kg where included.
[8] abbreviates: Day 0-25, diet with 150 g/Kg lactose, SWE 2.8 g/Kg where included.
The mark [9] stands for this setting: Day 0-25, diet with 250 g/Kg lactose, SWE 2.8 g/Kg where included.
[10] abbreviates: Day 7-14, diet with 150 g/Kg lactose, SWE 2.8 g/Kg where included.
The mark [11] stands for this setting: Day 7-14, diet with 250 g/Kg lactose, SWE 2.8 g/Kg where included.
Setting [12] is: Day 14-25, diet with 150 g/Kg lactose, SWE 2.8 g/Kg where included.
[13] abbreviates: Day 14-25, diet with 250 g/Kg lactose, SWE 2.8 g/Kg where included.

Turning to fucoidan, in the assay on Lactobacilli [1] (FUC diet (236 ppm) v basal diet (8.93)), the “faecal Lactobacilli numbers” value amounted to 9.22. Moreover, in the assay with Lactobacilli [1] (FUC included with LAM), the faecal lactobacilli populations result is listed as “no effect”. In addition, the ADG result in assay [2] (FUC added to a LAM diet) was “no effect”; in assay [2] (FUC diet (236 ppm) compared to basal diet) it was “significantly higher”. In addition, the “average daily feed intake” value in assay [2] (weaned pigs, 21 days, LAM 300 ppm, FUC 236 ppm) is recorded as “no effect”.

For `OC[C@H]1O[C@@H](O[C@H]2[C@H](O)[C@@H](O)C(O)O[C@@H]2CO)[C@H](O)[C@@H](O)[C@H]1O` (stereo partly drawn) [Lactose, lactose], the “Digestibility Ash” value in assay [3] (diet Lactose 150 g/Kg) amounted to 53.30%; in assay [3] (diet Lactose 250 g/Kg) it was 72.80%. In addition, the entries for the “Digestibility DM” value in assay [3] (diet Lactose 150 g/Kg) and in assay [3] (diet Lactose 250 g/Kg) were 87.75% and 91.34%, respectively. Further, the figures for the “Digestibility GE” value in assay [3] (diet Lactose 150 g/Kg) and in assay [3] (diet Lactose 250 g/Kg) were 85.93% and 90.22%, respectively. The “Digestibility N” value in assay [3] (diet Lactose 150 g/Kg) stood at 83.69%; in assay [3] (diet Lactose 250 g/Kg), 86.86%. In addition, the “Digestibility NDF” value in assay [3] (diet Lactose 150 g/Kg) came out at 37.55%; in assay [3] (diet Lactose 250 g/Kg), 61.91%. For the same molecule, the “Digestibility OM” value is 89.16% in assay [3] (diet Lactose 150 g/Kg) and 92.24% in assay [3] (diet Lactose 250 g/Kg). In addition, the “Average Daily Gain (ADG)” value in assay [4] (Day 0-7, diet with 150 g/Kg lactose, SWE 2.8 g/Kg (L. digitata) where included) turned out to be 0.100 kg/day; in assay [4] (Day 0-7, diet with 250 g/Kg lactose, SWE 2.8 g/Kg (L. digitata) where included) it was 0.146 kg/day; in assay [4] (setting [8]), 0.275 kg/day; in assay [4] (setting [9]), 0.287 kg/day; in assay [4] (setting [10]) it was 0.302 kg/day; in assay [4] (setting [11]) it was 0.325 kg/day. In addition, the “Average Daily Gain (ADG)” value stood at 0.438 kg/day in assay [4] (setting [12]) and 0.388 kg/day in assay [4] (setting [13]). Besides, the “Average Daily Feed Intake (ADFI)” value in assay [4] (setting [6]) was 0.242 kg/day; in assay [4] (setting [7]), 0.239 kg/day; in assay [4] (setting [8]), 0.446 kg/day; in assay [4] (setting [9]), 0.458 kg/day; in assay [4] (setting [10]), 0.415 kg/day; in assay [4] (setting [11]), 0.450 kg/day. The figures for the “Average Daily Feed Intake (ADFI)” value in assay [4] (setting [12]) and in assay [4] (setting [13]) were 0.682 kg/day and 0.683 kg/day, respectively. Besides, the “Gain: Feed ratio” value in assay [4] (setting [6]) is reported as 0.413 Kg/Kg; in assay [4] (setting [7]), 0.589 Kg/Kg; in assay [4] (setting [8]), 0.603 Kg/Kg; in assay [4] (setting [9]) it was 0.619 Kg/Kg; in assay [4] (setting [10]) it was 0.747 Kg/Kg; in assay [4] (setting [11]) it was 0.729 Kg/Kg. Also, the “Gain: Feed ratio” value in assay [4] (setting [12]) is given as 0.633 Kg/Kg; in assay [4] (setting [13]) it was 0.569 Kg/Kg. Further, the “Bacterial populations Lactobacilli” value with Lactobacilli [5] (diet Lactose 150 g/Kg) is given as 8.46 Log10 CFU/g faeces; with Lactobacilli [5] (diet Lactose 250 g/Kg), 8.19 Log10 CFU/g faeces. The “Bacterial populations Escherichia coli” value is listed as 6.30 Log10 CFU/g faeces in the assay with Escherichia coli (diet Lactose 150 g/Kg) and 5.70 Log10 CFU/g faeces in the assay on Escherichia coli (diet Lactose 250 g/Kg).
